In brackets after ≈: the same amount, converted by molar mass.

This assay deals with Enterococcus faecalis ATCC 29212. Description: MIC against Enterococcus faecalis ATCC 29212. The assay is classed as cell-based. The settings on record: ATCC29212; Enterococcus faecalis ATCC 29212; read-out: MICs against Enterococcus faecalis, Activity. The protocol: Institute. Methods for Dilution Antimicrobial Susceptibility Tests for Bacteria That Grow Aerobically; Approved Standard—Seventh Edition. Document M7-A7. CLSI, Wayne, Pa., 2006; Clinical Laboratories and Standards Institute. Methods for Antimicrobial Susceptibility Testing of Anaerobic Bacteria; Approved Standard—Sixth Edition. Document M11-A6. CLSI, Wayne, Pa., 2004).
Compounds of this invention were tested for antimicrobial activity by susceptibility testing in liquid or on solid media. MICs for compounds against each strain were determined by the broth microdilution or agar dilution method according to the guidelines of the Clinical Laboratories and Standards Institute, formerly the National Committee for Clinical Laboratory Standards (Clinical Laboratories and Standards Institute. Methods for Dilution Antimicrobial Susceptibility Tests for Bacteria That Grow Aerobically; Approved Standard—Seventh Edition. Document M7-A7. CLSI, Wayne, Pa., 2006; Clinical Laboratories and Standards Institute. Methods for Antimicrobial Susceptibility Testing of Anaerobic Bacteria; Approved Standard—Sixth Edition. Document M11-A6. CLSI, Wayne, Pa., 2004).
As to `CCNC(=O)Nc1nc2cc(-c3cnccn3)cc(-c3cccnc3)c2s1` [Example 43, 1-Ethyl-3-(5-pyrazin-2-yl-7-pyridin-3-yl-benzothiazol-2-yl)-urea], the MIC was 0.25 to 1 mg/L (≈ 0.664 to 2.66 µM).

In the case of `CCNC(=O)Nc1nc2cc(-c3cnccc3N)cc(-c3cccnc3)c2s1` [Example 44, 1-[5-(4-Amino-pyridin-3-yl)-7-pyridin-3-yl-benzothiazol-2-yl]-3-ethyl-urea], the MIC lay within 2 to 16 mg/L (≈ 5.12 to 41 µM).

Take `CCNC(=O)Nc1nc2cc(-c3cncc(N)n3)cc(-c3cccnc3)c2s1` [Example 45, 1-[5-(6-Amino-pyrazin-2-yl)-7-pyridin-3-yl-benzothiazol-2-yl]-3-ethyl-urea]: the MIC was in the range of 0.25 to 1 mg/L (≈ 0.639 to 2.55 µM).

With `CCNC(=O)Nc1nc2cc(-c3ccc(C)nn3)cc(-c3cccnc3)c2s1` [Example 46, 1-Ethyl-3-[5-(6-methyl-pyridazin-3-yl)-7-pyridin-3-yl-benzothiazol-2-yl]-urea], the MIC lay in the range of 2 to 16 mg/L (≈ 5.12 to 41 µM).

`CCNC(=O)Nc1nc2cc(-c3ccn(C)c(=O)c3)cc(-c3cccnc3)c2s1` [Example 47, 1-Ethyl-3-[5-(1-methyl-2-oxo-1,2-dihydro-pyridin-4-yl)-7-pyridin-3-yl-benzothiazol-2-yl]-urea]: the MIC was 0.25 to 1 mg/L (≈ 0.617 to 2.47 µM).

Consider `CCNC(=O)Nc1nc2cc(-c3cncc(Cl)c3)cc(-c3cccnc3)c2s1` [Example 48, 1-[5-(5-Chloro-pyridin-3-yl)-7-pyridin-3-yl-benzothiazol-2-yl]-3-ethyl-urea], for which the MIC was 0.25 to 1 mg/L (≈ 0.61 to 2.44 µM).

Regarding `CCNC(=O)Nc1nc2cc(-c3cnc4[nH]ccc4c3)cc(-c3cccnc3)c2s1` [Example 49, 1-Ethyl-3-[7-pyridin-3-yl-5-(1H-pyrrolo[2,3-b]pyridin-5-yl)-benzothiazol-2-yl]-urea], the MIC lay within 0.25 to 1 mg/L (≈ 0.603 to 2.41 µM).

As for `CCNC(=O)Nc1nc2cc(-c3cc(C)n(C)c(=O)c3)cc(-c3cccnc3)c2s1` [Example 50, 1-[5-(1,6-Dimethyl-2-oxo-1,2-dihydro-pyridin-4-yl)-7-pyridin-3-yl-benzothiazol-2-yl]-3-ethyl-urea], the MIC fell in the range of 0.25 to 1 mg/L (≈ 0.596 to 2.38 µM).

On to `CCNC(=O)Nc1nc2cc(-c3ccn(C)c(=O)c3)cc(-c3ccccn3)c2s1` [Example 51, 1-Ethyl-3-[5-(1-methyl-2-oxo-1,2-dihydro-pyridin-4-yl)-7-pyridin-2-yl-benzothiazol-2-yl]-urea], for which the MIC is less than 0.25 mg/L.

As for `CCNC(=O)Nc1nc2cc(-c3cccnc3C)cc(-c3ccccn3)c2s1` [Example 52, 1-Ethyl-3-[5-(2-methyl-pyridin-3-yl)-7-pyridin-2-yl-benzothiazol-2-yl]-urea], the MIC is 0.25 to 1 mg/L (≈ 0.642 to 2.57 µM).

Regarding `CCNC(=O)Nc1nc2cc(-c3cncc(N)n3)cc(-c3ccccn3)c2s1` [Example 53, 1-[5-(6-Amino-pyrazin-2-yl)-7-pyridin-2-yl-benzothiazol-2-yl]-3-ethyl-urea], the MIC is less than 0.25 mg/L.

`CCNC(=O)Nc1nc2cc(-c3cnc4c(c3)NC(=O)CO4)cc(-c3ccccn3)c2s1` [Example 54, 1-Ethyl-3-[5-(2-oxo-2,3-dihydro-1H-pyrido[2,3-b][1,4]oxazin-7-yl)-7-pyridin-2-yl-benzothiazol-2-yl]-urea]: the MIC lay in the range of 0.25 to 1 mg/L (≈ 0.56 to 2.24 µM).

On to `CCNC(=O)Nc1nc2cc(-c3ccc(NC(=O)CNC(C)(C)C)nc3)cc(-c3ccccn3)c2s1` [Example 55, 2-tert-Butylamino-N-{5-[2-(3-ethyl-ureido)-7-pyridin-2-yl-benzothiazol-5-yl]-pyridin-2-yl}-acetamide], for which the MIC was 0.25 to 1 mg/L (≈ 0.496 to 1.99 µM).

For `CCNC(=O)Nc1nc2cc(-c3ccnc(O)c3)cc(-c3ccccn3)c2s1` [Example 56, 1-Ethyl-3-[5-(2-hydroxy-pyridin-4-yl)-7-pyridin-2-yl-benzothiazol-2-yl]-urea], the MIC lay in the range of 0.25 to 1 mg/L (≈ 0.639 to 2.55 µM).

Take `CCNC(=O)Nc1nc2cc(-c3ccn(CCO)c(=O)c3)cc(-c3ccccn3)c2s1` [Example 57, 1-Ethyl-3-{5-[1-(2-hydroxy-ethyl)-2-oxo-1,2-dihydro-pyridin-4-yl]-7-pyridin-2-yl-benzothiazol-2-yl}-urea]: the MIC was 0.25 to 1 mg/L (≈ 0.574 to 2.3 µM).

Take `CCNC(=O)Nc1nc2cc(-c3ccc(CCO)nc3)cc(-c3ccccn3)c2s1` [Example 58, 1-Ethyl-3-{5-[6-(2-hydroxy-ethyl)-pyridin-3-yl]-7-pyridin-2-yl-benzothiazol-2-yl}-urea]: the MIC was less than 0.25 mg/L.

Turning to `CCNC(=O)Nc1nc2cc(-c3ccc(CN4CCOCC4)nc3)cc(-c3ccccn3)c2s1` [Example 59, 1-Ethyl-3-[5-(6-morpholin-4-ylmethyl-pyridin-3-yl)-7-pyridin-2-yl-benzothiazol-2-yl]-urea], the MIC is less than 0.25 mg/L.

Take `CCNC(=O)Nc1nc2cc(-c3ccc(CN(CCOC)CCOC)nc3)cc(-c3ccccn3)c2s1` [Example 60, 1-[5-(6-{[Bis-(2-methoxy-ethyl)-amino]-methyl}-pyridin-3-yl)-7-pyridin-2-yl-benzothiazol-2-yl]-3-ethyl-urea]: the MIC lay within 0.25 to 1 mg/L (≈ 0.48 to 1.92 µM).

Consider `CCNC(=O)Nc1nc2cc(-c3ccc(NCCN(C)C)nc3)cc(-c3ccccn3)c2s1` [Example 61, 1-{5-[6-(2-Dimethylamino-ethylamino)-pyridin-3-yl]-7-pyridin-2-yl-benzothiazol-2-yl}-3-ethyl-urea], for which the MIC was 0.25 to 1 mg/L (≈ 0.542 to 2.17 µM).

In the case of `CCNC(=O)Nc1nc2cc(-c3cncc(N4CCN(C)CC4)c3)cc(-c3ccccn3)c2s1` [Example 62, 1-Ethyl-3-{5-[5-(4-methyl-piperazin-1-yl)-pyridin-3-yl]-7-pyridin-2-yl-benzothiazol-2-yl}-urea], the MIC is 0.25 to 1 mg/L (≈ 0.528 to 2.11 µM).

In the case of `CCNC(=O)Nc1nc2cc(-c3ccn(CCN4CCOCC4)c(=O)c3)cc(-c3ccccn3)c2s1` [Example 63, 1-Ethyl-3-{5-[1-(2-morpholin-4-yl-ethyl)-2-oxo-1,2-dihydro-pyridin-4-yl]-7-pyridin-2-yl-benzothiazol-2-yl}-urea], the MIC lay within 0.25 to 1 mg/L (≈ 0.495 to 1.98 µM).

As for `CCNC(=O)Nc1nc2cc(-c3cncc(C(=O)NCCN(C)C)c3)cc(-c3ccccn3)c2s1` [Example 64, N-(2-Dimethylamino-ethyl)-5-[2-(3-ethyl-ureido)-7-pyridin-2-yl-benzothiazol-5-yl]-nicotinamide], the MIC was 2 to 16 mg/L (≈ 4.08 to 32.7 µM).

Regarding `CCNC(=O)Nc1nc2cc(-c3cnc4c(c3)CNCC4)cc(-c3ccccn3)c2s1` [Example 65, 1-Ethyl-3-[7-pyridin-2-yl-5-(5,6,7,8-tetrahydro-[1,6]naphthyridin-3-yl)-benzothiazol-2-yl]-urea], the MIC lay within 0.25 to 1 mg/L (≈ 0.581 to 2.32 µM).

As to `CCNC(=O)Nc1nc2cc(-c3ccc(NC(=O)CN(C)C)nc3)cc(-c3ccccn3)c2s1` [Example 66, 2-Dimethylamino-N-{5-[2-(3-ethyl-ureido)-7-pyridin-2-yl-benzothiazol-5-yl]-pyridin-2-yl}-acetamide], the MIC was in the range of 0.25 to 1 mg/L (≈ 0.526 to 2.1 µM).

Turning to `CCNC(=O)Nc1nc2cc(-c3ccc(CNC)nc3)cc(-c3ccccn3)c2s1` [Example 67, 1-Ethyl-3-[5-(6-methylaminomethyl-pyridin-3-yl)-7-pyridin-2-yl-benzothiazol-2-yl]-urea], the MIC lay in the range of 0.25 to 1 mg/L (≈ 0.597 to 2.39 µM).

For the compound `CCNC(=O)Nc1nc2cc(-c3cncc(C(=O)NCCN4CCOCC4)c3)cc(-c3ccccn3)c2s1` [Example 68, 5-[2-(3-Ethyl-ureido)-7-pyridin-2-yl-benzothiazol-5-yl]-N-(2-morpholin-4-yl-ethyl)-nicotinamide], the MIC was in the range of 0.25 to 1 mg/L (≈ 0.47 to 1.88 µM).

In the case of `CCNC(=O)Nc1nc2cc(-c3ccc(CC(=O)OC)nc3)cc(-c3ccccn3)c2s1` [Example 69, {5-[2-(3-Ethyl-ureido)-7-pyridin-2-yl-benzothiazol-5-yl]-pyridin-2-yl}-acetic acid methyl ester], the MIC was less than 0.25 mg/L.

These data come from patent US8481544B2, “Antibacterial compositions” (Biota Europe Limited, priority 2006, dated 2013).
